Data published in the supplement of paper PMC10307832.

Assays:
Assay in all cases: relative viability (nuclei count vs DMSO), 5 days (fraction); higher = more cells survive
[1] = compound: CN(C)C(=N)NC(=N)N [Metformin] + CC(=O)c1c(C)c2cnc(Nc3ccc(N4CCNCC4)cn3)nc2n(C2CCCC2)c1=O [Palbociclib] (partner 0.5 µM)
Outline: (§1)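 Lung cancer cell lines, seeded in 1536-well plates, were treated the following day by pin tool with a single drug or with five library-drug doses (not always all listed) in √10 steps on top of a fixed anchor-drug dose. Cells were fixed and nuclei stained in one step after 5 days, and nuclei were counted. Relative viability is the nuclei count for treated wells divided by that for vehicle wells, reported as medians of duplicate plates.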

[2] = compound: CN(C)C(=N)NC(=N)N [Metformin] + Cc1nc(Nc2ncc(C(=O)Nc3c(C)cccc3Cl)s2)cc(N2CCN(CCO)CC2)n1 [Dasatinib] (partner 0.075 µM)
Outline: as §1

[3] = compound: CN(C)C(=N)NC(=N)N [Metformin] + Nc1nc2[nH]cc(CCc3ccc(C(=O)N[C@@H](CCC(=O)O)C(=O)O)cc3)c2c(=O)[nH]1 [Pemetrexed] (partner 0.2 µM)
Outline: as §1

[4] = compound: N#CC1(c2ccc(NC(=O)c3cccnc3NCc3ccncc3)cc2)CCCC1 [Apatinib] + Cc1cc(Nc2cc(N3CCN(C)CC3)nc(Sc3ccc(NC(=O)C4CC4)cc3)n2)n[nH]1 [Tozasertib] (partner 0.1 µM)
Outline: as §1

NCI-H460
relative viability ([1]; first compound 31.62 µM): 0.191 | relative viability ([1]; first compound 100 µM): 0.249 | relative viability ([1]; first compound 316.23 µM): 0.105 | relative viability ([1]; first compound 1000 µM): 0.148 | relative viability ([2]; first compound 10 µM): 0.402 | relative viability ([2]; first compound 31.62 µM): 0.546 | relative viability ([2]; first compound 100 µM): 0.353 | relative viability ([2]; first compound 316.23 µM): 0.43 | relative viability ([2]; first compound 1000 µM): 0.457 | relative viability ([3]; first compound 31.62 µM): 0.0599 | relative viability ([3]; first compound 100 µM): 0.0625 | relative viability ([3]; first compound 316.23 µM): 0.0535 | relative viability ([3]; first compound 1000 µM): 0.0639 | relative viability ([4]; first compound 0.08 µM): 0.576 | relative viability ([4]; first compound 0.253 µM): 0.51 | relative viability ([4]; first compound 0.8 µM): 0.223 | relative viability ([4]; first compound 2.53 µM): 0.0517 | relative viability ([4]; first compound 8 µM): 0.053
